For test [1], the target named is T1, CCoAOMT (caffeoyl CoA O-methyltransferase) (Medicago sativa, UniProt Q40313).
T1 construct: gene CCOMT; alfalfa cDNA in pET15b, His-tagged, expressed in E. coli Rosetta, Ni-NTA purified; tag removal not mentioned
Put plainly: HPLC assay of feruloyl CoA formation. The class given is biochemical. To be noted: 20, 30 or 40 µM caffeoyl CoA; 200 µM S-adenosyl methionine, 600 µM MgCl2, 2 mM DTT, pH 7.5, 30 °C.

The target in test [2] is T1, CCoAOMT (caffeoyl CoA O-methyltransferase). Description: HPLC assay of feruloyl CoA formation. The class given is biochemical. To be noted: putative activator; 2 µM caffeyl aldehyde, 20 µM caffeoyl CoA, 200 µM S-adenosyl methionine, 600 µM MgCl2, 2 mM DTT, 4% DMSO, pH 7.5, 30 °C.

SMILES strings stand for the structures.

T1 sequence (Q40313 whole entry): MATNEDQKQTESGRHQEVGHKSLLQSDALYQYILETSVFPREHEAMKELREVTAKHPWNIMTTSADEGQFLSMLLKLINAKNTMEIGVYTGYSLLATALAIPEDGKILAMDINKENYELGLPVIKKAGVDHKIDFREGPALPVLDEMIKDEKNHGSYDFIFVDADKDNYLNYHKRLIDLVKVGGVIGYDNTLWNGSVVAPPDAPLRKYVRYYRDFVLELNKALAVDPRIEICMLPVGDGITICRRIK

As to `CC(C)(COP(=O)(O)OP(=O)(O)OC[C@H]1O[C@@H](n2cnc3c(N)ncnc32)[C@H](O)[C@@H]1OP(=O)(O)O)[C@@H](O)C(=O)NCCC(=O)NCCSC(=O)/C=C/c1ccc(O)c(O)c1` [caffeoyl CoA], in test [1], the “HPLC assay of feruloyl CoA formation” value is reported as “assayed the purified recombinant enzyme with caffeoyl CoA as substrate”.
In the case of `O=C/C=C/c1ccc(O)c(O)c1` [caffeyl aldehyde], in test [2], the “% increase in activity at 2 μM” value is given as 16%.

The record behind these values is PMC3493464, “Functional Analysis of Metabolic Channeling and Regulation in Lignin Biosynthesis: A Computational Approach” (PLoS Computational Biology, 2012).
